Test results as given in ChEMBL document CHEMBL1201862, “PubChem BioAssay data set” (2004).
Blank lines part the entries; values can stand above or below the molecule they belong to. Calls of active or inactive are those of the source.

What was measured:
[1] = inhibitors of intracellular T. cruzi replication, confirmation, NIH3T3 host cells, beta-gal luminescence (AID 2044); format: functional, cell-based;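 also: intracellular parasites grown in NIH/3T3 mouse fibroblasts as host cells; luminescent beta-galactosidase reporter signal from transgenic T. cruzi replicating inside host cells; inhibitors lower the luminescence signal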
[2] = cytotoxicity toward NIH3T3 fibroblasts, dose response, counter-screen, cell-based, ATP luminescence, mouse fibroblasts (AID 2010); format: functional; settings: NIH3T3;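 also: cells exposed to compound for about 90 hours before reading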
[3] = cytotoxicity in KRAS-transformed pancreatic duct cells, primary screen, cell-based, fluorescence, HTS (AID 431); format: functional; settings: Homo sapiens;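 also: cell line used: HPDE-C7K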
[4] = cytotoxicity in HPDE-C7 cells, cell-based, fluorescence, HTS (AID 430); format: functional; settings: Homo sapiens
[5] = cells
[6] = target: T1, Mannose-6-phosphate isomerase (Homo sapiens, UniProt P34949); assay: inhibitors of human PMI, primary screen, biochemical, fluorescence intensity, coupled assay (AID 1209)
T1 sequence (P34949 whole entry): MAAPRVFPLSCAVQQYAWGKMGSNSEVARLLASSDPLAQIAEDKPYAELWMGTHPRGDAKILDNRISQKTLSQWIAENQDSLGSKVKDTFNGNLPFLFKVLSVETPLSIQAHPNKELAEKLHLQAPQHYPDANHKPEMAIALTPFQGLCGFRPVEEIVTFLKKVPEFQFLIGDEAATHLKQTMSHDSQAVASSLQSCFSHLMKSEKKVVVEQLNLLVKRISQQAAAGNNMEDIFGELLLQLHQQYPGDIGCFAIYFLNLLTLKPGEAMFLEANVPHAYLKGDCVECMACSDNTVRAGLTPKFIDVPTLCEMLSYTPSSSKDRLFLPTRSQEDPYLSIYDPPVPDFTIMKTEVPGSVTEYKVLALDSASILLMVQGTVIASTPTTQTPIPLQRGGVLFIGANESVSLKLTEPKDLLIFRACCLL

[7] = target: T2, NADPH oxidase 1 (Homo sapiens, UniProt Q9Y5S8); format: functional, cell-based;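 also: Cell-based assay with luminescence read-out, IC50 derived from inhibitor dose-response curves; intracellular ROS from endogenous NOX1 in intact HT29 colon cancer cells; potency of inhibitors that lower the ROS luminescence signal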
T2 sequence (Q9Y5S8 whole entry): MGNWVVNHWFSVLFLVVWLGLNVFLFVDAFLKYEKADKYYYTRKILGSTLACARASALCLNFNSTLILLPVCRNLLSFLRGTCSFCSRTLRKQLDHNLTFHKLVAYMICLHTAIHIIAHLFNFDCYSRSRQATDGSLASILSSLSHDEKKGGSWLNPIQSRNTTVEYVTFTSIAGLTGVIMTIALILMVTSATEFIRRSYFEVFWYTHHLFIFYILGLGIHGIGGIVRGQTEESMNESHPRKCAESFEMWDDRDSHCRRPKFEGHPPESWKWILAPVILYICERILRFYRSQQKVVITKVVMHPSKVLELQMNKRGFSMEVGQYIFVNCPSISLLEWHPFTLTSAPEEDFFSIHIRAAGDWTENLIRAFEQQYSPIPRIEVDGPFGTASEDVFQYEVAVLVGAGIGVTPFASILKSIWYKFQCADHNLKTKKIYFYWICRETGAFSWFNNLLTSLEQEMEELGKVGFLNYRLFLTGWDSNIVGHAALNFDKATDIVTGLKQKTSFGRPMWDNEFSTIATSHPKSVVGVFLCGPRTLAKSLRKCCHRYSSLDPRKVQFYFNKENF

[8] = target: Peroxisome proliferator-activated receptor gamma/Nuclear receptor coactivator 2 (Homo sapiens, UniProt P37231); format: functional;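 also: agonist potency for raising coactivator recruitment to the receptor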
Chain of Peroxisome proliferator-activated receptor gamma/Nuclear receptor coactivator 2 (P37231 whole entry): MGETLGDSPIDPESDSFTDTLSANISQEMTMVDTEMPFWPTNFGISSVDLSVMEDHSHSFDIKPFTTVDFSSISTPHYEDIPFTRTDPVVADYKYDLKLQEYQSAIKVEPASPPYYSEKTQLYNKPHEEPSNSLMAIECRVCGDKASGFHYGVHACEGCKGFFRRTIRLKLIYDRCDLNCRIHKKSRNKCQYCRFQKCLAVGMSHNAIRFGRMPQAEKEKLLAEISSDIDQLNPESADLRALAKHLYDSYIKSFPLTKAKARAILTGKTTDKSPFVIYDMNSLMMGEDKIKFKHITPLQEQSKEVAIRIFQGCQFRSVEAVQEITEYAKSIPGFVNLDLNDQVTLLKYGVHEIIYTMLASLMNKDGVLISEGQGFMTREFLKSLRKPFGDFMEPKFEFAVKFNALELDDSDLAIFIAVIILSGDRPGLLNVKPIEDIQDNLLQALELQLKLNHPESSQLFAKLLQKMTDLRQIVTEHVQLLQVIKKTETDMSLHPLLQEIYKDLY
Chain of Peroxisome proliferator-activated receptor gamma/Nuclear receptor coactivator 2 (Q15596 whole entry, further chain): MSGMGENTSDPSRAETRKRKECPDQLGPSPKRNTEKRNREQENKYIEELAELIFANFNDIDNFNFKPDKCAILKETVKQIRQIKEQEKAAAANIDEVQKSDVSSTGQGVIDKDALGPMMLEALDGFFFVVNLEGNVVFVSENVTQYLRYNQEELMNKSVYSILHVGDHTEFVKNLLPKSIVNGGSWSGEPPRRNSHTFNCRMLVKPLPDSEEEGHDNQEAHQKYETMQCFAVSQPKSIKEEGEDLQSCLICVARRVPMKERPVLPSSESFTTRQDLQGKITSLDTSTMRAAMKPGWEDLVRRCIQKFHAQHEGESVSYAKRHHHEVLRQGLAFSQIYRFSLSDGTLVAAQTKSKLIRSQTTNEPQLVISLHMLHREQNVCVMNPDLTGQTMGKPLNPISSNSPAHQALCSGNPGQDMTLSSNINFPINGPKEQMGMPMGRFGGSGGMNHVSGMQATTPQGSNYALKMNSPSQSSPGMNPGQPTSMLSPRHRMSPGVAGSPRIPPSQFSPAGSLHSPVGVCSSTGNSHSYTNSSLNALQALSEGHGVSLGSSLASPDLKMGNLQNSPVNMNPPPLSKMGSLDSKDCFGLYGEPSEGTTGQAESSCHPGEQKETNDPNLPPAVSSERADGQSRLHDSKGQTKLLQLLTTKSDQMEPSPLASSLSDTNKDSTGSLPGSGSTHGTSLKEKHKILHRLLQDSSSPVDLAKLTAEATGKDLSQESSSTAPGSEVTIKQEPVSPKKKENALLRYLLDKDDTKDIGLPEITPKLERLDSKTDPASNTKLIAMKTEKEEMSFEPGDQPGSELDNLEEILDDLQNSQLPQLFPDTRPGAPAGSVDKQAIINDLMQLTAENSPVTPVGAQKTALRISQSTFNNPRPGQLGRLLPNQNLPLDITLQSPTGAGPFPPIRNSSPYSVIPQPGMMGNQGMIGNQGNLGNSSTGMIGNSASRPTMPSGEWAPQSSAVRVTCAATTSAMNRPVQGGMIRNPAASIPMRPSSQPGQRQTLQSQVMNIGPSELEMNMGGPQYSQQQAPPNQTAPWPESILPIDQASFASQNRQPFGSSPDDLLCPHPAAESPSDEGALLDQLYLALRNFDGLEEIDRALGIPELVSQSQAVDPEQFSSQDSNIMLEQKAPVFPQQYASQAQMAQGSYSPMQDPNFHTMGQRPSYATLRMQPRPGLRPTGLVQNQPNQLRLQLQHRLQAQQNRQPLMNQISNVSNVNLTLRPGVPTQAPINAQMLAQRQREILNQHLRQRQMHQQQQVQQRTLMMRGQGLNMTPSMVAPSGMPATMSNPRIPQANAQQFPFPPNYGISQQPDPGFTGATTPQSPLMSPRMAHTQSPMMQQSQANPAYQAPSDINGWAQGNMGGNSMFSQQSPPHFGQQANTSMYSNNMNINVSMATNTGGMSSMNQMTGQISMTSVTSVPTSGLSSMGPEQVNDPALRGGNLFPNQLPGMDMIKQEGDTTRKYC

[9] = target: Peroxisome proliferator-activated receptor gamma/Nuclear receptor coactivator 3 (Homo sapiens, UniProt P37231); format: functional;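 also: agonist potency for raising coactivator recruitment to the receptor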
Chain of Peroxisome proliferator-activated receptor gamma/Nuclear receptor coactivator 3 (P37231 whole entry): as the sequence (P37231 whole entry) above
Chain of Peroxisome proliferator-activated receptor gamma/Nuclear receptor coactivator 3 (Q9Y6Q9 whole entry, further chain): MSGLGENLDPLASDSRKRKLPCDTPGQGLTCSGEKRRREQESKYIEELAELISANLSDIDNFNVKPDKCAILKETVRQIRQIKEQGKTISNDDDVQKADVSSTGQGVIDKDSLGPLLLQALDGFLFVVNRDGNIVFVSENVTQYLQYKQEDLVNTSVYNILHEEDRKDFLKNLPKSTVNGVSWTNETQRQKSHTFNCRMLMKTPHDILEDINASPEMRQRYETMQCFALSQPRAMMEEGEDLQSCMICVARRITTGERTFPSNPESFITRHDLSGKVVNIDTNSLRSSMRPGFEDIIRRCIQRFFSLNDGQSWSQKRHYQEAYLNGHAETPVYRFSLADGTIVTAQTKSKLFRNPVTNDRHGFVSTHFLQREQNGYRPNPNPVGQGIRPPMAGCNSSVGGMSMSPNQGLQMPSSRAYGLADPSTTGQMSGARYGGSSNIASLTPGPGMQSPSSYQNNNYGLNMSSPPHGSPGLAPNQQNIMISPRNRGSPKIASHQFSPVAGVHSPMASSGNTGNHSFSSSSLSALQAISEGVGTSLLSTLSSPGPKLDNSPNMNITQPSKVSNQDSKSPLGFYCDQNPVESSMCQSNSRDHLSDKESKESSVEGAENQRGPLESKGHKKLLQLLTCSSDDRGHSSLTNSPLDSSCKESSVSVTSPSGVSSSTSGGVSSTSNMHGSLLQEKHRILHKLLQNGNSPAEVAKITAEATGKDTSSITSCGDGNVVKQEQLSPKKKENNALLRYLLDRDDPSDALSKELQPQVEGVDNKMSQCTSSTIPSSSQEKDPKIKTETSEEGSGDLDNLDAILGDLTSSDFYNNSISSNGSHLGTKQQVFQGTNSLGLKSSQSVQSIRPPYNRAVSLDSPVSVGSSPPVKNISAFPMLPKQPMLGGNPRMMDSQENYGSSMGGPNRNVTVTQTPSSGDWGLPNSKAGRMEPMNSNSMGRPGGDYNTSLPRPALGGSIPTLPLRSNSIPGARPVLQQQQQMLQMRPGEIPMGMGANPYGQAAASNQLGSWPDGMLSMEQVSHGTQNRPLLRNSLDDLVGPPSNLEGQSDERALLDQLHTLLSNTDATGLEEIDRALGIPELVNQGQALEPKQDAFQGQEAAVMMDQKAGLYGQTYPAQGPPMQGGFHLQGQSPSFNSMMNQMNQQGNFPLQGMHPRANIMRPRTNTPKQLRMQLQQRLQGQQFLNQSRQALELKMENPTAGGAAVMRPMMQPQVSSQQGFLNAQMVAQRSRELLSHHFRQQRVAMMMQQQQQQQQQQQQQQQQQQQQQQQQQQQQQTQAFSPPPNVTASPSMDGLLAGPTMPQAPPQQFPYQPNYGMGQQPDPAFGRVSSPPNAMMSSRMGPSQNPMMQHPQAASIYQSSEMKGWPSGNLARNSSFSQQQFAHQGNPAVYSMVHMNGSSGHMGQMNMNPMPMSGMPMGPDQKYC

[10] = target: Peroxisome proliferator-activated receptor gamma/Nuclear receptor coactivator 1 (Homo sapiens, UniProt P37231); format: functional;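 also: agonist potency as compounds enhance coactivator SRC-1 recruitment to PPARgamma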

- IC50 [7]: > 17 µM (not active)
SMILES: Fc1ccc(-c2nc(-c3ccccc3)c(-c3ccccc3)[nH]2)cc1

- EC50 [8]: > 79.4 µM (not active)
- EC50 [9]: > 79.4 µM (not active)
- EC50 [10]: > 79.4 µM (not active)
SMILES: Cc1occc1C(=O)N/N=C/c1ccc(Br)s1

- IC50 [7]: > 17 µM (not active)
SMILES: Clc1ccc(-c2nc(-c3ccccc3)c(-c3ccccc3)[nH]2)cc1

The remaining lines, values behind:

SMILES: Cc1cc2oc(=O)cc(CN3CCN(C/C=C/c4ccccc4)CC3)c2cc1O
- EC50 [1]: 0.102 µM (active)
- EC50 [2]: > 60 µM (not active)
- EC50 [3]: > 20 µM (not active)
- EC50 [4]: > 20 µM (not active)

SMILES: CCOC(=O)N1CCN(S(=O)(=O)c2ccc(C(=O)N(CCCN(C)C)c3nc4cc(OC)ccc4s3)cc2)CC1
- EC50 [1]: < 0.1 µM (active)
- EC50 [2]: > 30 µM (not active)
- EC50 [5]: 0.03 µM (active)

SMILES: CN(O)/C=N/C(=S)Nc1ccc(Cl)cc1Cl
- IC50 [6]: > 50 µM (not active)
